From patent US20220056019A1, “FARNESOID X RECEPTOR AGONISTS AND USES THEREOF” (Metacrine, Inc., priority 2018, published 2022)

Target: T1, hFXR (Homo sapiens, UniProt Q96RI1)
T1 construct: expressed in transfected cells; host or cells: CV-1 cells
T1 sequence (Q96RI1 1-486): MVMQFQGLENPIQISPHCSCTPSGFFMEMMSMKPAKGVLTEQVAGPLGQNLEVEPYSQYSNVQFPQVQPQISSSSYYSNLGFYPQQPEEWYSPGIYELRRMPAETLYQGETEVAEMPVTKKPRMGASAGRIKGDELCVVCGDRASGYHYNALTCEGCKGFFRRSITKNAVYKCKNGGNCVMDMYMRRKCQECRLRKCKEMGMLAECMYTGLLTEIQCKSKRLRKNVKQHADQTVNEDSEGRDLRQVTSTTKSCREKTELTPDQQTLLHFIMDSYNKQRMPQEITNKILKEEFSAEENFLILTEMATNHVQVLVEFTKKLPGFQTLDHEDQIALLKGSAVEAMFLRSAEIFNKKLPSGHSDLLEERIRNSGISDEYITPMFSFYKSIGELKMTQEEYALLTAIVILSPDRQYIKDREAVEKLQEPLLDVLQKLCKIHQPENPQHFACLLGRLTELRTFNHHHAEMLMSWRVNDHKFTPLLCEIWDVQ
T1 sequence (P19793 1-462 partner): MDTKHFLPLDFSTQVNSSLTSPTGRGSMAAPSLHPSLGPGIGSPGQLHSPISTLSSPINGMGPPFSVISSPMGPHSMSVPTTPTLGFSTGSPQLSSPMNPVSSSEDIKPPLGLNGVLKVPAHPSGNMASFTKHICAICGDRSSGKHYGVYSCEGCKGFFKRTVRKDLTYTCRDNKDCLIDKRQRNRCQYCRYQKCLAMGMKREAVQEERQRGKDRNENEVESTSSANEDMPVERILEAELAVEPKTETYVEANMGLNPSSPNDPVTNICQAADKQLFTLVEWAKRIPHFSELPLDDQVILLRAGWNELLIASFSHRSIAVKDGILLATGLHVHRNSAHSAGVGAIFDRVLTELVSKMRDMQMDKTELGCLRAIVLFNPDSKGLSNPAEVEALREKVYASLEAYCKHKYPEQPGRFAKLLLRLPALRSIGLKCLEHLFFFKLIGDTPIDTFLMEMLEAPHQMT
Assay: In Vitro FXR Assay (TK): TK-ECRE-luc reporter in transfected CV-1 cells
Assay type: cell-based
Settings: 18 hrs incubation, luminescence
In short: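 CV-1 cells in DMEM with 10% charcoal-stripped FBS were transiently co-transfected with hFXR, hRXR, TK-ECRE-luc reporter and pCMX-YFP plasmids over 18 h at 37 °C. Compounds serially diluted in DMSO were added for 18 h; cells were then lysed and luciferase luminescence measured.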

| SMILES | EC50 [nM] |
| --- | --- |
| COc1ccc([C@H]2CC[C@H](CN(c3cc(-c4cnn(C(C)C)c4)ccn3)C(=O)[C@H]3CC[C@H](CO)CC3)CC2)cc1C [Compound 17, (trans)-4-(Hydroxymethyl)-N-(4-(1-isopropyl-1H-pyrazol-4-yl)pyridin-2-yl)-N-(((trans)-4-(4-methoxy-3-methylphenyl)cyclohexyl)methyl)cy-clohexanecarboxamide] | ≤ 50 |
| COc1ccc(C23CCC(CN(C(=O)C4CCC(OC(=O)N5CC(O)C5)CC4)c4cc(C5CCCN(C(C)C)C5)ccn4)(CC2)CC3)cc1C (stereo not drawn) [Compound 26.18, 4-((4-(1-Isopropylpiperidin-3-yl)pyridin-2-yl)((4-(4-methoxy-3-methylphenyl)bicyclo[2.2.2]octan-1-yl)methyl)carbamoyl)cyclohexyl trans-3-hydroxyazetidine-1-carboxylate] | 1000 to 10000 |
| COc1ccc(C23CCC(CN(c4cc(-c5cnn(C(C)C)c5)ccn4)C(=O)[C@H]4CC[C@H](OC(=O)N5CC(CCO)C5)CC4)(CC2)CC3)cc1C [Compound 4.43, 4-((4-(1-Isopropyl-1H-pyrazol-4-yl)pyridin-2-yl) ((4-(4-methoxy-3-methylphenyl)bicyclo [2.2.2]octan-1-yl)methyl)carbamoyl)cyclohexyl trans-3-(2-hydroxyethyl) azetidine-1-carboxylate] | ≤ 50 |
| COc1ccc(C23CCC(CN(c4cc(-c5cnn(C(C)C)c5)ncn4)C(=O)[C@H]4CC[C@H](OC(=O)NCCCO)CC4)(CC2)CC3)cc1C [Compound 23.19, 4-((6-(1-Isopropyl-1H-pyrazol-4-yl)pyrimidin-4-yl)((4-(4-methoxy-3-methylphenyl)bi-cyclo[2.2.2]octan-1-yl)methyl)carbamoyl)(trans-cyclohexyl) (3-hydroxypropyl)carbamate] | ≤ 50 |
| COc1ccc(C23CCC(CN(c4cc(-c5cnc(C(C)C)s5)ccn4)C(=O)[C@H]4CC[C@H](OC(=O)N5CC(CO)C5)CC4)(CC2)CC3)cc1C [Compound 4.29, 4-((4-(2-Isopropylthiazol-5-yl)pyridin-2-yl)((4-(4-methoxy-3-methylphenyl)bicyclo[2.2.2]octan-1-yl)methyl)carbamoyl)(trans-cyclohexyl) 3-(hydroxymethyl)azetidine-1-carboxylate] | ≤ 50 |
| COc1ccc(C23CCC(CN(c4cc(-c5cnn(C(C)C)c5)ccn4)C(=O)[C@H]4CC[C@H](NC(=O)OC(C)C)CC4)(CC2)CC3)cc1C [Compound 8.02, (trans)-Isopropyl (4-((4-(1-isopropyl-1H-pyrazol-4-yl)pyridin-2-yl)((4-(4-methoxy-3-methylphenyl)bicyclo[2.2.2]octan-1-yl)methyl)carbamoyl)cyclohexyl)car-bamate] | ≤ 50 |
| COc1ccc([C@H]2CC[C@H](CN(c3cccc(-c4cnn(C(C)C)c4)c3)C(=O)[C@H]3CC[C@H](NC(=O)OC(C)C)CC3)CC2)cc1C [Compound 6.02, Isopropyl (trans-4-((3-(1-isopropyl-1H-pyrazol-4-yl)phenyl)((trans-4-(4-methoxy-3-methylphenyl)cyclohexyl)meth-yl)carbamoyl)cyclohexyl)carbamate] | ≤ 50 |
| COc1ccc(C23CCC(CN(c4cc(-c5cnn(C6(C)CCC6)c5)ccn4)C(=O)[C@H]4CC[C@H](OC(=O)NCCO)CC4)(CC2)CC3)cc1C [Compound 25.16, 4-(((4-(4-Methoxy-3-methylphenyl)bicyclo[2.2.2]octan-1-yl)methyl)(4-(1-(1-methylcyclobutyl)-1H-pyrazol-4-yl)pyridin-2-yl)carbamoyl)(trans-cyclohexyl)(2-hydroxyethyl)carbamate] | ≤ 50 |

The remaining lines, values ahead:

| EC50 [nM] | SMILES |
| --- | --- |
| ≤ 50 | COc1ccc([C@H]2CC[C@H](CN(c3cc(-c4coc(C(C)C)n4)ccn3)C(=O)[C@H]3CC[C@H](OC(=O)N4CCN(C)CC4)CC3)CC2)cc1C [Compound 2.25, trans-4-((4-(2-Isopropyloxazol-4-yl)pyridin-2-yl)(((trans)-4-(4-methoxy-3-methylphenyl)cyclohexyl)methyl)carbamoyl)cyclohexyl 4-methylpiperazine-1-carboxylate] |
| ≤ 50 | COc1ncc([C@H]2CC[C@H](CN(c3cc(-c4cnn(C(C)C)c4)ccn3)C(=O)[C@H]3CC[C@H](OC(=O)N4CC(N(C)C)C4)CC3)CC2)cc1C [Compound 1.04, trans-4-((4-(1-Isopropyl-1H-pyrazol-4-yl)pyridin-2-yl)(((trans)-4-(6-methoxy-5-methylpyridin-3-yl)cyclohexyl)methyl)carbamoyl) cyclohexyl 3-(dimethylamino)azetidine-1-carboxylate] |
| 50 to 1000 | CCc1nc(-c2ccnc(N(C[C@H]3CC[C@H](c4ccc(OC)c(C)c4)CC3)C(=O)[C@H]3CC[C@H](OC(=O)N4CCN(C)CC4)CC3)c2)co1 [Compound 2.48, trans-4-((4-(2-Ethyloxazol-4-yl)pyridin-2-yl)((trans-4-(4-methoxy-3-methylphenyl)cyclohexyl)methyl)carbamoyl)cyclohexyl 4-methylpiperazine-1-carboxylate] |
| ≤ 50 | COc1ccc([C@H]2CC[C@H](CN(c3cc(-c4cnn(C(C)C)c4)ccn3)C(=O)[C@H]3CC[C@H](OC(=O)N4CC(OCCO)C4)CC3)CC2)cc1C [Compound 2.11, trans-4-((4-(1-Isopropyl-1H-pyrazol-4-yl)pyridin-2-yl)(((trans)-4-(4-methoxy-3-methylphenyl)cyclohexyl)methyl)carbamoyl) cyclohexyl3-(2-hydroxyethoxy)azetidine-1-carboxylate] |
| ≤ 50 | COc1ccc([C@H]2CC[C@H](CN(c3cc(-c4cnn(C(C)C)c4)ccn3)C(=O)[C@H]3CC[C@H](OC(=O)N4CC(S(C)(=O)=O)C4)CC3)CC2)cc1C [Compound 2.12, trans-4-((4-(1-Isopropyl-1H-pyrazol-4-yl)pyridin-2-yl)(((trans)-4-(4-methoxy-3-methylphenyl)cyclohexyl)methyl)carbamoyl) cyclohexyl 3-(methylsulfonyl)azetidine-1-carboxylate] |
| ≤ 50 | COc1ccc([C@H]2CC[C@H](CN(c3cc(-c4cc(C(C)C)on4)ccn3)C(=O)[C@H]3CC[C@H](OC(=O)N4CC(O)C4)CC3)CC2)cc1C [Compound 2.56, trans-4-((4-(5-Isopropylisoxazol-3-yl)pyridin-2-yl)(((trans)-4-(4-methoxy-3-methylphenyl)cyclohexyl)methyl)carbamoyl)cyclohexyl 3-hydroxyazetidine-1-carboxylate] |
| ≤ 50 | COc1ccc([C@H]2CC[C@H](CN(c3cc(-c4cnn(C(C)C)c4)ccn3)C(=O)[C@H]3CC[C@H](OC(=O)NCC(F)(F)CO)CC3)CC2)cc1C [Compound 2.34, trans-4-((4-(1-Isopropyl-1H-pyrazol-4-yl)pyridin-2-yl)(((trans)-4-(4-methoxy-3-methylphenyl)cyclohexyl)methyl)carbamoyl) cyclohexyl(2,2-difluoro-3-hydroxypropyl)carbamate] |
| ≤ 50 | COc1ccc([C@H]2CC[C@H](CN(c3cc(-c4cc(C5CC5)on4)ccn3)C(=O)[C@H]3CC[C@H](OC(=O)N4CC(O)C4)CC3)CC2)cc1C [Compound 2.09, trans-4-((4-(5-Cyclopropylisoxazol-3-yl)pyridin-2-yl)((trans-4-(4-methoxy-3-methylphenyl)cyclohexyl)methyl)carbamoyl)cyclohexyl 3-hydroxyazetidine-1-carboxylate] |
| ≤ 50 | COc1ccc([C@H]2CC[C@H](CN(c3cc(-c4cnn(C(C)C)c4)ccn3)C(=O)[C@H]3CC[C@H](OC(=O)NCCCF)CC3)CC2)cc1C [Compound 2.29, trans-4-((4-(1-Isopropyl-1H-pyrazol-4-yl)pyridin-2-yl)(((trans)-4-(4-methoxy-3-methylphenyl)cyclohexyl)methyl)carbamoyl) cyclohexyl(3-fluoropropyl)carbamate] |
| ≤ 50 | COc1ccc([C@H]2CC[C@H](CN(c3cc(-c4cnc(N(C)C)nc4)ccn3)C(=O)[C@H]3CC[C@H](OC(=O)N4CC(O)C4)CC3)CC2)cc1C [Compound 3.01, trans-4-((4-(2-(Dimethylamino)pyrimidin-5-yl)pyridin-2-yl)((trans-4-(4-methoxy-3-methylphenyl)cyclohexyl)methyl)carbamoyl) cyclohexyl 3-hydroxyazetidine-1-carboxylate] |
| ≤ 50 | COc1ccc([C@H]2CC[C@H](CN(c3cc(-c4cnc(C5CC5)s4)ccn3)C(=O)[C@H]3CC[C@H](OC(=O)NC(C)C)CC3)CC2)cc1C [Compound 2.45, trans-4-((4-(2-Cyclopropylthiazol-5-yl)pyridin-2-yl)(((trans)-4-(4-methoxy-3-methylphenyl)cyclohexyl)methyl)carbamoyl)cyclohexyl isopropylcarbamate] |
